Reference: US10456465B2, “Compositions, kits, and methods for the diagnosis prognosis, monitoring, treatment and modulation of post-transplant lymphoproliferative disorders and hypoxia associated angiogenesis disorders using galectin-1” (Dana-Farber Cancer Institute, Inc., priority 2009, dated 2019)
Blank lines part the entries; values can stand above or below the compound they belong to.

What was measured:
KS cells = assay: Gal1 expression and secretion by KS cells (hypoxia/normoxia); type: cell-based, human; conditions: for IκB-α degradation: hypoxia; for hypoxia-driven Gal1 expression and secretion: hypoxia (1% O2)
Gal1 = target: T1, Gal1 (Homo sapiens, UniProt P09382); assay: Binding of 488-Gal1 to HUVEC; conditions: lactose/sucrose 30 mM, swainsonine 3 μM, benzyl-α-GalNAc 2 mM, mAb 0.5 μM
T1 construct: made in house
T1 sequence (P09382 whole entry): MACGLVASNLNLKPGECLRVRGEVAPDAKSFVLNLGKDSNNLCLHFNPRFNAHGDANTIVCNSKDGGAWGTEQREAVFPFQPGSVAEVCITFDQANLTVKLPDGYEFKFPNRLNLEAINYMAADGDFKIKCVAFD
Description: For glycophenotyping, ECs were incubated with biotinylated L-PHA, LEL, SNA, MAL II, PNA and HPA (all from Vector). Recombinant Gal1 was purified as described in Ilarregui et al. (2009) Nat Immunol 10, 981-991. For binding assays, ECs were incubated for 1 h at 4° C. with dyLight 488-labeled galectins in the absence or presence of lactose, sucrose, anti-Gal1 or isotype control mAb or following transfection with GnT5, GCNT1 or scrambled siRNA. Cells were analyzed on a FACSAria (BD Biosciences). For segregation, ECs were treated with Gal1 for 1 h, fixed and incubated for 1 h with anti-human VEGFR2 antibody (55B11; Cell Signaling) as described in Ilarregui et al. (2009) Nat Immunol 10, 981-991. Cells were analyzed on a Nikon laser confocal microscope (Eclipse E800).
DyLight 488-conjugated Gal1 (488-Gal1) was obtained using DyLight labeling kit (Thermo Scientific). Inhibitors of Jak2-STAT3 (AG490; 5 μM), Jnk-SAP (SP600125; 20 μM), p38 (SB202190; 10 μM), HIF-1α (3 μM) and O-glycosylation (benzyl-α-Ga1NAc; 2 mM) were from Calbiochem. Inhibitors of Erk1/2 (U0126; 5 μM), PI(3)K-Akt (Ly294002; 2 μM) and NF-κB (BAY 11-7082; 1 μM), ROS (N-acetyl-cysteine; NAC), N-glycosylation (swainsonine; 3 μM), lactose or sucrose (30 mM) were from Sigma. PNGase F (25 U/μg protein) was from New England Biolabs. Recombinant cytokines including IL-10 (50 ng/ml), IL-17 (5 ng/ml), TGF-β1 (3 ng/ml), IFN-γ (50 ng/ml), VEGF (20 ng/ml), bFGF (10 ng/ml) were from R&D. TNF (20 ng/ml) was from Sigma. Biotinylated lectins, including L-PHA (2 μg/ml), LEL (1 μg/ml), SNA (5 μg/ml), MAL II (10 μg/ml), PNA (10 μg/ml) and HPA (10 μg/ml) were purchased from Vector Labs and incubated in buffer containing 150 mM NaCl, 10 mM HEPES and 1% BSA (Sigma). ON-TARGETplus SMART siRNA pools against GnT5, GCNT1, VEGFR2, NRP-1, VEGF, HIF-1α and scrambled were obtained from Dharmacon. Transfections were performed by Lipofectamine-RNAiMAX (Invitrogen) following manufacturer's directions. Recombinant Gal3 and Gal8 were purified as described in Acosta-Rodriguez et al. (2004) J Immunol 172, 493-502 and Cardenas Delgado et al. (2010) FASEB J [Epub ahead of print].

mice (Matrigel plugs) = assay: In vivo vascularization of Matrigel sponges; design: species or system mouse; conditions: lactose 30 mM
Description: Invasion assays were performed using the BioCoat Angiogenesis system (BD Biosciences) following manufacturer's recommendations. For assessment of in vivo angiogenesis, growth factor-reduced Matrigel (BD Biosciences) was mixed with Gal1 (0.1 or 3 μM) with or without lactose (30 mM). In another set of experiments, serum-free CM from KS cells infected or not with a retroviral vector expressing Gal1 shRNA and cultured under hypoxic or normoxic conditions, were added to unpolymerized Matrigel and injected subcutaneously into the flanks of either wild-type or Lgals1^−/− (B6) mice or nude mice using a cold syringe. Matrigel embedded with buffer alone was used as negative control and a cocktail containing VEGF (50 ng/ml), heparin (50 U/ml) and TNF (2 ng/ml) was used as positive control. After 6 days, Matrigel plugs were collected by surgery, photographed and weighed. Samples were minced and diluted in water to measure hemoglobin content using the Drabkin reagent kit (Sigma). Each sample was normalized to 100 mg of recovered gel and confronted with a standard curve of mouse blood hemoglobin.

HUVEC [1] = assay: HUVEC proliferation ([3H]thymidine incorporation); type: cell-based, human; conditions: induced by Gal1
Description: (§1) HUVEC transfected or not with specific siRNA or pre-incubated with signaling pathway inhibitors were exposed to VEGF or Gal1 with or without lactose, sucrose, 8F4F8G7 mAb or control isotype (IgG1κ) or specific antibodies for VEGFR1 (AP-MAB0702; Abcam), VEGFR2 (AF357; R&D), VEGFR3 (AB89501; Abcam) or VEGF (MAB293; R&D). Cells were processed for proliferation, migration, invasion and tube formation assays. Tumor-associated blood vessels were identified by flow cytometry using Alexa Fluor 647-conjugated anti-CD34 antibody (RAM34; eBioscience).
For proliferation assays, HUVEC that were transfected or not with specific siRNA and cultured in complete M199 medium were trypsinized, harvested and seeded in 96-well microtiter plates (1×10^3 cells/well). Cells were pre-incubated for 1 hour at 37° C. with lactose, sucrose or signaling pathway inhibitors and then exposed to Gal1. After 24 hours, cells were incubated for an additional 24 hours in the presence of 0.8 μCi [^3H]-thymidine (NEN Dupont). Cells were then harvested and radioactivity was measured in a 1414 Liquid Scintillation Counter (Perkin Elmer).

HUVEC [2] = assay: HUVEC capillary tube formation on Matrigel; type: cell-based, human; conditions: induced by Gal1
Description: as §1
(§2) The formation of capillary-like tubular structures was assessed in Matrigel-coated plates essentially as described in Albini et al. (2001), Cancer Res 61, 8171-8178. In brief, HUVEC (3×10^4 cells/ml) transfected or not with specific siRNA or pre-incubated with signaling pathway inhibitors were seeded on Matrigel with our without Gal1 (0.1 to 3 μM) or VEGF (20 ng/ml) with or without lactose, sucrose, 8F4F8G7 mAb (0.5 μM) or isotype control (IgG1K) or blocking antibodies specific for VEGFR1 (5 μg/ml), VEGFR2 (2 μg/ml), VEGFR3 (10 μg/ml) or VEGF (10 μg/ml). Cells were incubated at 37° C. for periods ranging from 0 to 24 h and were visualized by phase-contrast microscopy. In another set of experiments, conditioned medium from hypoxic or normoxic KS cells infected or not with a retroviral vector containing Gal1 shRNA was assessed on HUVEC transfected or not with GnT5, GCNT1 or scr siRNA (100 nM). Capillary-like tubular structures were scored by counting the number of tubules (closed areas) per well in a phase-contrast microscope (Nikon E-100). For migration assays, HUVEC (4×10^4/well) transfected or not with specific siRNA were resuspended in M199 medium supplemented with 1% FCS. Cells were placed into the top chamber of the insert while the bottom well was filled with Gal1 or VEGF in the absence or presence of lactose, sucrose, 8F4F8G7 mAb or isotype control. After 24 hours, inserts were stained with crystal violet (Sigma) and analyzed in an inverted microscope. For each filter, 4 images were collected and cells were counted with the ImageJ software v1.34 (NIH).

HUVEC [3] = assay: HUVEC migration (transwell); type: cell-based, human; conditions: induced by Gal1
Description: as §1, §2

Compound: Cc1ccc(S(=O)(=O)/C=C/C#N)cc1 [BAY-117802]
IκB-α degradation (KS cells; KS cells): prevented
hypoxia-driven Gal1 expression and secretion (KS cells; KS cells): completely eliminated

Compound: [Cl-].[Cl-].[Co+2] [CoCl2]
Gal1 expression (KS cells): no effect

Compound: OO [H2O2]
secretion of Gal1 (KS cells; KS cells, exogenous administration): stimulated

Compound: CC(=O)N[C@@H](CS)C(=O)O [N-acetyl-cysteine]
IκB-α degradation (KS cells; KS cells): prevented
hypoxia-driven Gal1 expression and secretion (KS cells; KS cells): strongly inhibited

effect on binding of Gal1 to ECs (Gal1): only partially inhibitory
Compound: CC(=O)N[C@H]1[C@@H](OCc2ccccc2)O[C@H](CO)[C@H](O)[C@@H]1O [benzyl-α-Ga1NAc]

effect on binding of Gal1 to ECs (Gal1): prevented
Compound: OC[C@H]1O[C@@H](O[C@H]2[C@H](O)[C@@H](O)C(O)O[C@@H]2CO)[C@H](O)[C@@H](O)[C@H]1O (some centres unmarked) [lactose, reference compound]
effect on Gal1-induced vascularization of Matrigel sponges (mice (Matrigel plugs)): specifically inhibited
effect on Gal1-induced EC proliferation (HUVEC [1]): completely prevented
effect on Gal1-induced capillary tube formation (HUVEC [2]): completely prevented
effect on Gal1-induced EC migration (HUVEC [3]): completely prevented

effect on binding of Gal1 to ECs (Gal1): not
Compound: OC[C@H]1O[C@@](CO)(O[C@H]2O[C@H](CO)[C@@H](O)[C@H](O)[C@H]2O)[C@@H](O)[C@@H]1O [sucrose]

Compound: O[C@H]1[C@H]2[C@H](O)CCCN2C[C@H]1O [swainsonine]
effect on binding of Gal1 to ECs (Gal1): almost completely abrogated
